Consider eleven compounds from the SangsterLogP compilation.

Assay in one data set: not given
Settings: not given
As for `O=C(NN=C1CCCCC1)c1ccncc1`, the logP (in general, the decadic logarithm of the partition coefficient of the neutral form, usually between octanol and water) was found to be 0.27. Still for that read-out and setting: the same measure for `c1ccc(C(Sc2nc3ccccc3[nH]2)c2ccccc2)cc1`: 4.9; for `c1ccc(CSc2nc3ccccc3[nH]2)cc1`: 3.92. On to `CC(=O)NNC(=O)c1ccncc1`, for which the logP is -0.87. Take `NNC(=O)c1ccnc(NN)c1`: the logP was -0.57.

The nature of a further data set: method code SF-AS, from DOI: 10.1021/je200827u. Conditions: pH 5.8.
On to `CC1CCC(=NNC(=O)c2ccncc2)CC1` (stereo unspecified), for which the pH-dependent lipophilicity (logD) (as a rule, lipophilicity at a set pH, counting ionised and neutral species) turned out to be 0.74. The compound `O=[N+]([O-])c1cc(CSc2nc3ccccc3[nH]2)cc([N+](=O)[O-])c1` yielded a log distribution coefficient (logD) of 3.14. For `CC(C)Sc1nc2ccccc2[nH]1`, the pH-dependent lipophilicity (logD) was 3.25. `CCSc1nc2ccccc2[nH]1` returned a logD of 2.67. The compound `CCSc1nc2ccccc2n1CC` registered a logD of 3.43.

`O=C(NN=C1CCCC1)c1ccncc1` had a logD of 0.22.
